Results from patent US6420398B2, “Urea derivatives having nitrogen aromatic heterocycle” (Santen Pharmaceutical Co., Ltd., priority 1998, dated 2002).
Where a name gives a salt, the structure may show the parent alone.

System: TNF-α production induced by lipopolysaccharide (LPS) stimulation
Test: Inhibitory effects on TNF-α production induced by LPS stimulation, in vivo test in rats (method of McGeehan et al.)
Details: Rattus norvegicus, 2 h; female rats; LPS from Salmonella s.c.; oral administration of 10 mg/kg test compound immediately after LPS; plasma TNF-α by ELISA two hours after LPS; read-out: TNF-α production inhibition rate (%)
Description: Inhibitory effects on TNF-α production induced by lipopolysaccharide (LPS) stimulation were studied by in vivo tests according to the method of McGeehan et al. (Nature, 370, 558-561 (1994)).
Female rats (five per group), body weight of about 200 g, about eight weeks old, were used as test animals. LPS from Salmonella was dissolved in physiological saline to prepare an LPS solution (1 mg/ml). Test compounds were dissolved or uniformly suspended in a 1% aqueous methylcellulose solution to give test compound preparation liquids.
The above-mentioned LPS solution (0.5 ml/kg) was subcutaneously administered to the rat. Immediately after the LPS administration, the test compound preparation liquid (5 ml/kg, containing 10 mg/kg test compound) was orally administered. Two hours after the LPS administration, blood was collected from abdominal aorta and was centrifuged at 4° C. and 3000 rpm for ten minutes. TNF-α levels in the obtained plasma were measured with a rat TNF-α -specific ELISA kit. TNF-α was not observed in the plasma with respect to an LPS-nonadministered group (control).
TNF-α production inhibition rates of the test compounds were determined by the following equation.
Inhibition rate (%)=[(A−B)/A]×100
A: TNF-α level in plasma of test compound-nonadministered group
B: TNF-α level in plasma of test compound-administered group
With `O=C(NCCCc1ccncc1)N(CCS)CCC1CCCCC1` [Compound No. 8-11, 1-(2-Cyclohexylethyl)-1-(2-mercaptoethyl)-3-[3-(4-pyridyl)propyl]urea hydrochloride] the inhibition at 10 mg/kg was 63.6%.
`CSCCN(CCC1CCCCC1)C(=O)NCc1ccncc1` [Compound No. 5-2, 1 (2-Cyclohexylethyl)-1-[2-(methylthio)ethyl]-3-(4-pyridylmethyl)urea] showed an inhibition at 10 mg/kg of 81.2%.
With `CC(=O)SCCN(CCCc1ccccc1)C(=O)NCCCc1ccncc1` [Compound No. 4-17, 1-[2-(Acetylthio)ethyl]-1-(3-phenylpropyl)-3-[3-(4-pyridyl)propyl]urea] the inhibition at 10 mg/kg was 70.6%.
`CC(=O)SCCN(CCC1CCCC1)C(=O)NCc1ccncc1` [Compound No. 8-3, 1-[2-(Acetylthio)ethyl]-1-(2-cyclopentylethyl)-3-(4-pyridylmethyl)urea hydrochloride] showed an inhibition at 10 mg/kg of 78.9%.
Work on `CC(=O)SCCN(CCC1CCCCC1)C(=O)NCCc1ccncc1` [Compound No. 4-2, 1-[2-(Acetylthio)ethyl]-1-(2-cyclohexylethyl)-3-[2-(4-pyridyl)ethyl]urea] yielded an inhibition at 10 mg/kg of 72.5%.
With `CC(=O)SCCN(CCc1ccccc1)C(=O)NCCCc1cccnc1` [Compound No. 4-15, 1-[2-(Acetylthio)ethyl]-1-phenethyl-3-[3-(3-pyridyl)propyl]urea] the inhibition at 10 mg/kg was 77.3%.
In the case of `CC(=O)SCCN(CCc1ccc(F)cc1)C(=O)NCCCc1ccncc1` [Compound No. 4-18, 1-[2-(Acetylthio)ethyl]-1-(4-fluorophenethyl)-3-[3-(4-pyridyl)propyl]urea], the inhibition at 10 mg/kg is reported as 64.2%.
Work on `CC(=O)SCCN(CCC12CC3CC(CC(C3)C1)C2)C(=O)NCc1ccncc1` [Compound No. 8-4, 1-[2-(Acetylthio)ethyl]-1-[2-(1-adamantyl)ethyl]-3-(4-pyridylmethyl)urea hydrochloride] yielded an inhibition at 10 mg/kg of 81%.
In the case of `CC(=O)SCCN(CCC1CCCCC1)C(=O)NCc1ccncc1` [Compound No. 8-1, 1-[2-(Acetylthio)ethyl]-1-(2-cyclohexylethyl)-3-(4-pyridylmethyl)urea hydrochloride], the inhibition at 10 mg/kg is reported as 80%.
In the case of `CSCCN(CCC1CCCCC1)C(=O)NCCCc1ccncc1` [Compound No. 5-1, 1-(2-Cyclohexylethyl)-1-[2-(methylthio)ethyl]-3-[3-(4-pyridyl)propyl]urea], the inhibition at 10 mg/kg is reported as 74.9%.
In the case of `CC(=O)SCCN(CCC1=CCCCC1)C(=O)NCc1ccncc1` [Compound No. 8-10, 1-[2-(Acetylthio)ethyl]-1-[2-(1-cyclohexenyl)ethyl]-3-(4-pyridylmethyl)urea hydrochloride], the inhibition at 10 mg/kg is reported as 69%.
With `CC(=O)SCCN(CCc1ccccc1)C(=O)NCCCc1ccncc1` [Compound No. 4-16, 1-[2-(Acetylthio)ethyl]-1-phenethyl-3-[3-(4-pyridyl)propyl]urea] the inhibition at 10 mg/kg was 77.2%.
Work on `CC(=O)SCCN(CCC1CCCCC1)C(=O)NCCCc1ccncc1` [Compound No. 4-3, 1-[2-(Acetylthio)ethyl]-1-(2-cyclohexylethyl)-3-[3-(4-pyridyl)propyl]urea] yielded an inhibition at 10 mg/kg of 80.8%.

System: not given
Test: not given
Details: not given
With `CC(=O)SCCN(CCC1CCCCC1)C(=O)NCCCc1ccncc1` [Compound No. 4-3, 1-[2-(Acetylthio)ethyl]-1-(2-cyclohexylethyl)-3-[3-(4-pyridyl)propyl]urea] the melting point was 70 °C.
